Assay results published in patent publication US12247018B2, “Aryl-n-aryl derivatives for treating a RNA virus infection” (ABIVAX, priority 2018, dated 2025).

Each compound was assayed on RSV A2 (assay: RSV inhibition (cytopathic effect) in HEp-2 cells using Viral ToxGlo assay). Details: human respiratory syncytial virus; RSV A2, HEp-2 cells, MOI 0.5, 72 h p.i.
Format: cell-based
Procedure: Protocol for Screening Antiviral Compounds for RSV Inhibition and Cytotoxicity Using Viral ToxGlo Assay
HEp-2 cells were maintained in Eagle's minimum essential medium (EMEM) with Earle's BSS adjusted to contain 2 mM L-glutamine, 10% fetal bovine serum, 100 U/ml penicillin and 100 μg/ml streptomycin. For the purposes of the screening assay they were grown to 90% confluency, trypsinized and recovered. The trypsin was neutralised with cell culture media and cells were centrifuged at 150×g for 5 minutes before discarding the supernatant and resuspending cell pellet in assay media (EMEM with Earle's BSS adjusted to contain 2 mM L-glutamine, 2% fetal bovine serum and 100 U/ml penicillin and 100 μg/ml streptomycin). The cells were seeded into white clear-bottomed cell culture plates at a density of 1.5×10^4 cells/well in 50 μl and 4×10^3 cells/well in 25 μl for 96 well plates and 384 well plates respectively. For the media/background control column assay media only was added. Cell plates were placed in a humid chamber and incubated overnight at 37° C./5% CO2. After overnight incubation cells were checked for confluency and healthy appearance.
Test articles were made up at 10× test concentration in a maximum DMSO concentration of 10% (final assay concentration maximal 1% DMSO) and added to the cell plates in volumes of 10 μl for 96 well plates and 5 μl for 384 well plates. For cell control and virus control wells the test article solvent only was added. Virus or assay media for cytotoxicity test wells and media/cell control wells was added immediately after test articles at an MOI of 0.5, 40 or 20 μl for 96 and 384 well plates respectively. Virus suspension was prepared by thawing RSV A2 frozen stocks and diluting to the required concentration of plaque forming units in assay media on ice.
Cell plates were further incubated inside a humid chamber for 72 h p.i at 37° C./5% CO2. After the incubation period cells were observed under the microscope to check for characteristic cytopathic effect in virus control wells and healthy cells in the cell control wells. After plates were adjusted to room temperature 20/40 μl Viral ToxGlo (Promega) was added to each well of the 384/96 well cell plates. Plates were incubated at room temperature, protected from light on a plate rocker for 20 minutes before measuring the luminescence on a spectrophotometer (Biotek Synergy HTX).

Point of comparison: `CCC(CC)NC(=O)c1cccc(Nc2ccc(C(=O)N=C3NCCCN3)cc2C2CC2)c1` [compound 110, 3-cyclopropyl-N-(1,3-diazinan-2-ylidene)-4-({3-[(pentan-3-yl)carbamoyl]phenyl}amino)benzamide], EC50 80 nM. Against it:
- CC(C)CCS(=O)(=O)Nc1cccc(Nc2ccc(C(=O)/N=C3\NCCC(=O)N3)cc2C(C)(C)C)c1 [compound 94, 3-tert-butyl-4-{[3-(3-methylbutanesulfonamido)phenyl]amino}-N-[(2E)-4-oxo-1,3-diazinan-2-ylidene]benzamide] — 4.7-fold lower, 17 nM
- O=C(CCC1CCCCC1)Nc1cc(Nc2ccc(C(=O)N=C3NCCCN3)cc2C(F)(F)F)ccc1F [compound 148, 4-{[3-(3-cyclohexylpropanamido)-4-fluorophenyl]amino}-N-(1,3-diazinan-2-ylidene)-3-(trifluoromethyl)benzamide] — 5.8-fold higher, 463 nM
- O=C(N=C1NCCCN1)c1ccc(Nc2cccc(OCCCCC3CCCCC3)c2)c(C2CC2)c1 [compound 140, 4-{[3-(4-cyclohexylbutoxy)phenyl]amino}-3-cyclopropyl-N-(1,3-diazinan-2-ylidene)benzamide] — 4.6-fold higher, 368 nM
- O=C(N=C1NCCCN1)c1ccc(Nc2ccccc2C(=O)NCCC(F)(F)F)c(C2CC2)c1 [compound 159, 3-cyclopropyl-N-(1,3-diazinan-2-ylidene)-4-({2-[(3,3,3-trifluoropropyl)carbamoyl]phenyl}amino)benzamide] — 14-fold higher, 1100 nM
- CC(C)CCCOc1cccc(Nc2ccc(C(=O)N=C3NCCCN3)cc2C2CC2)c1 [compound 132, 3-cyclopropyl-N-(1,3-diazinan-2-ylidene)-4-({3-[(4-methylpentyl)oxy]phenyl}amino)benzamide] — 3.2-fold higher, 259 nM
- CC(C)CNC(=O)c1cccc(Nc2ccc(C(=O)N=C3NCCCN3)cc2C2CC2)c1 [compound 131, 3-cyclopropyl-N-(1,3-diazinan-2-ylidene)-4-({3-[(2-methylpropyl)carbamoyl]phenyl}amino)benzamide] — 3.1-fold higher, 246 nM
- CC1COCCN1C(=O)c1cccc(Nc2ccc(C(=O)/N=C3\NCCC(=O)N3)cc2C2CC2)c1Cl (stereo not drawn) [compound 91, 4-{[2-chloro-3-(3-methylmorpholine-4-carbonyl)phenyl]amino}-3-cyclopropyl-N-[(2E)-4-oxo-1,3-diazinan-2-ylidene]benzamide] — 40-fold lower, 2 nM
- O=C(N=C1NCCCN1)c1ccc(Nc2cccc(OCC(F)(F)F)c2)c(C2CC2)c1 [compound 124, 3-cyclopropyl-N-(1,3-diazinan-2-ylidene)-4-{[3-(2,2,2-trifluoroethoxy)phenyl]amino}benzamide] — 1.9-fold higher, 150 nM
- CC(C)NC(=O)c1ccccc1Nc1ccc(C(=O)/N=C2\NCCC(=O)N2)cc1C(C)(C)C [compound 100, 3-tert-butyl-N-[(2E)-4-oxo-1,3-diazinan-2-ylidene]-4-({2-[(propan-2-yl)carbamoyl]phenyl}amino)benzamide] — 2.2-fold lower, 37 nM
- O=C1CCN/C(=N\C(=O)c2ccc(Nc3cccc(C(=O)N4CCOCC4)c3)c(C3CC3)c2)N1 [compound 164, 3-cyclopropyl-4-{[3-(morpholine-4-carbonyl)phenyl]amino}-N-[(2E)-4-oxo-1,3-diazinan-2-ylidene]benzamide] — 19-fold higher, 1500 nM
- CC(C)NC(=O)c1cccc(Nc2ccc(C(=O)/N=C3\NCCC(=O)N3)cc2C(C)(C)C)c1 [compound 98, 3-tert-butyl-N-[(2E)-4-oxo-1,3-diazinan-2-ylidene]-4-({3-[(propan-2-yl)carbamoyl]phenyl}amino)benzamide] — 2.4-fold lower, 33 nM
- O=C1CCN/C(=N\C(=O)c2ccc(Nc3cccc(OCC4CCCOC4)c3)c(C3CC3)c2)N1 (stereo not drawn) [compound 134, 3-cyclopropyl-4-({3-[(oxan-3-yl)methoxy]phenyl}amino)-N-[(2E)-4-oxo-1,3-diazinan-2-ylidene]benzamide] — 3.3-fold higher, 265 nM
- O=C(N=C1NCCCN1)c1ccc(Nc2cccc(C(=O)NC3CCCCC3)c2)c(C2CC2)c1 [compound 117, 4-{[3-(cyclohexylcarbamoyl)phenyl]amino}-3-cyclopropyl-N-(1,3-diazinan-2-ylidene)benzamide] — 1.6-fold higher, 125 nM
- O=C1CCN/C(=N\C(=O)c2ccc(Nc3cccc(OCC4CCOCC4)c3)c(C3CC3)c2)N1 [compound 146, 3-cyclopropyl-4-({3-[(oxan-4-yl)methoxy]phenyl}amino)-N-[(2E)-4-oxo-1,3-diazinan-2-ylidene]benzamide] — 5.5-fold higher, 439 nM
- O=C(N=C1NCCCN1)c1ccc(Nc2cccc(OCC3CCCCC3)c2)c(C2CC2)c1 [compound 127, 4-{[3-(cyclohexylmethoxy)phenyl]amino}-3-cyclopropyl-N-(1,3-diazinan-2-ylidene)benzamide] — 2.1-fold higher, 172 nM
- O=C(N=C1NCCCN1)c1ccc(Nc2cccc(C(=O)NC3CC(F)(F)C3)c2)c(C2CC2)c1 [compound 152, 3-cyclopropyl-N-(1,3-diazinan-2-ylidene)-4-({3-[(3,3-difluorocyclobutyl)carbamoyl]phenyl}amino)benzamide] — 7.4-fold higher, 593 nM
- CC(C)CCCCNC(=O)c1cccc(Nc2ccc(C(=O)N=C3NCCCN3)cc2C2CC2)c1 [compound 107, 3-cyclopropyl-N-(1,3-diazinan-2-ylidene)-4-({3-[(5-methylhexyl)carbamoyl]phenyl}amino)benzamide] — within 1.5-fold, 68 nM
- CC(C)C(=O)Nc1cccc(Nc2ccc(C(=O)/N=C3\NCCC(=O)N3)cc2C2CC2)c1C1CC1 [compound 122, 3-cyclopropyl-4-{[2-cyclopropyl-3-(2-methylpropanamido)phenyl]amino}-N-[(2E)-4-oxo-1,3-diazinan-2-ylidene]benzamide] — 1.8-fold higher, 141 nM
- O=C(N=C1NCCCN1)c1ccc(Nc2cccc(OC3CCC3)c2)c(C2CC2)c1 [compound 129, 4-[(3-cyclobutoxyphenyl)amino]-3-cyclopropyl-N-(1,3-diazinan-2-ylidene)benzamide] — 2.8-fold higher, 223 nM
- O=C(N=C1NCCCN1)c1ccc(Nc2cc(C(=O)NCCC3CCCCC3)ccn2)c(C(F)(F)F)c1 [compound 111, N-(2-cyclohexylethyl)-2-({4-[(1,3-diazinan-2-ylidene)carbamoyl]-2-(trifluoromethyl)phenyl}amino)pyridine-4-carboxamide] — within 1.5-fold, 86 nM
- CC1(NC(=O)c2cccc(Nc3ccc(C(=O)N=C4NCCCN4)cc3C3CC3)c2)CC1 [compound 99, 3-cyclopropyl-N-(1,3-diazinan-2-ylidene)-4-({3-[(1-methylcyclopropyl)carbamoyl]phenyl}amino)benzamide] — 2.4-fold lower, 34 nM
- CC(C)CCNC(=O)c1cccc(Nc2ccc(C(=O)N=C3NCCCN3)cc2C(F)(F)F)c1 [compound 104, N-(1,3-diazinan-2-ylidene)-4-({3-[(3-methylbutyl)carbamoyl]phenyl}amino)-3-(trifluoromethyl)benzamide] — 1.6-fold lower, 50 nM
- O=C(N=C1NCCCN1)c1ccc(Nc2cccc(C(=O)NC3CCOCC3)c2)c(C2CC2)c1 [compound 157, 3-cyclopropyl-N-(1,3-diazinan-2-ylidene)-4-({3-[(oxan-4-yl)carbamoyl]phenyl}amino)benzamide] — 13-fold higher, 1030 nM
- CC(C)C(=O)Nc1cccc(Nc2ccc(C(=O)/N=C3\NCCC(=O)N3)cc2C2CC2)c1 [compound 116, 3-cyclopropyl-4-{[3-(2-methylpropanamido)phenyl]amino}-N-[(2E)-4-oxo-1,3-diazinan-2-ylidene]benzamide] — 1.5-fold higher, 122 nM
- CC(C)OCCOc1cccc(Nc2ccc(C(=O)N=C3NCCCN3)cc2C2CC2)c1 [compound 139, 3-cyclopropyl-N-(1,3-diazinan-2-ylidene)-4-({3-[2-(propan-2-yloxy)ethoxy]phenyl}amino)benzamide] — 4.2-fold higher, 340 nM
- CCC(C)NC(=O)c1cccc(Nc2ccc(C(=O)N=C3NCCCN3)cc2C2CC2)c1 (stereo not drawn) [compound 101, 4-({3-[(butan-2-yl)carbamoyl]phenyl}amino)-3-cyclopropyl-N-(1,3-diazinan-2-ylidene)benzamide] — 2-fold lower, 40 nM
- Cc1c(Nc2ccc(C(=O)N=C3NCCCN3)cc2C2CC2)cccc1-c1ncc(Cl)[nH]1 [compound 141, 4-{[3-(5-chloro-1H-imidazol-2-yl)-2-methylphenyl]amino}-3-cyclopropyl-N-(1,3-diazinan-2-ylidene)benzamide] — 4.6-fold higher, 370 nM
- O=C1CCN/C(=N\C(=O)c2ccc(Nc3cccc(C(=O)N4CCOCC4)c3Cl)c(C3CC3)c2)N1 [compound 95, 4-{[2-chloro-3-(morpholine-4-carbonyl)phenyl]amino}-3-cyclopropyl-N-[(2E)-4-oxo-1,3-diazinan-2-ylidene]benzamide] — 4.2-fold lower, 19 nM
- O=C1CCN/C(=N\C(=O)c2ccc(Nc3cccc(OCC4COCCO4)c3Cl)c(C3CC3)c2)N1 (stereo not drawn) [compound 93, 4-({2-chloro-3-[(1,4-dioxan-2-yl)methoxy]phenyl}amino)-3-cyclopropyl-N-[(2E)-4-oxo-1,3-diazinan-2-ylidene]benzamide] — 6.2-fold lower, 13 nM
